This note sets out measurements from PubChem BioAssay (NCI).

Assay in all cases: NCI tumour cell line growth inhibition, 48 h
Test [1] relates to HS 578T breast.
Test [2] deals with SW-620 colon.
Test [3] has as its system NCI-H226 lung.
In test [4] the test system is A549 NSCLC.
Test [5] concerns OVCAR-3 ovarian.
For test [6], the system named is UACC-62 melanoma.
Test [7] relates to HCT-15 colon.
Test [8] has as its system HOP-62 NSCLC.
The subject of test [9] is KM12 colon.
Test [10] has as its system SF-539 CNS.

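Test compounds were applied to cells in 96-well plates for 48 hours at 5 doses. GI50 marks 50% less growth. Definition used: TGI = concentration required for complete inhibition of growth.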

Turning to `COC(=O)c1cc2c(s1)-c1nccc3c1c(nc1ccccc13)C2=O`, the GI50 was 28.2 µM in test [1]; 61.7 µM in test [2]; above 100 µM in test [3]; above 100 µM in [4]; 16.5 µM in test [5]; above 100 µM in test [6]. Moreover, the values for the GI50 in [7], in test [8] and in test [9] were above 100 µM, 65.4 µM and 69.4 µM, respectively. The TGI in test [1] was above 100 µM; in test [2], above 100 µM; in test [3] it was above 100 µM; in test [4] it was above 100 µM; in test [5] it was 56.2 µM; in [6], above 100 µM. Further, the TGI in test [7], in [8] and in [9] was above 100 µM each time.
For the molecule `C=CCN1CCC23c4c5ccc(O)c4OC2C(=NN=C2CCC4(O)C6Cc7ccc(O)c8c7C4(CCN6CC=C)C2O8)CCC3(O)C1C5` (stereo unspecified), the TGI in [2] was 48.9 µM; in test [3], above 100 µM; in test [4] it was 42.8 µM; in [5], 34.5 µM; in [6], 44.4 µM; in test [10], 33.1 µM. The figures for the TGI in test [7], in test [8] and in test [9] were above 100 µM, 44 µM and 42.4 µM, respectively.
Consider `COc1ccc(Cn2c(N)c(S(=O)(=O)c3ccc(Cl)cc3)c3nc(C#N)c(C#N)nc32)cc1`, for which the GI50 is 14.6 µM in test [1]; above 50 µM in [2]; 18.2 µM in [4]; 2.9 µM in test [5]; 4.36 µM in test [6]; above 50 µM in test [10]. The results for the GI50 in test [7], in test [8] and in test [9] were above 50 µM, above 50 µM and 28 µM, respectively. Also, the TGI in test [1] is above 50 µM; in test [2] it was above 50 µM; in test [4] it was above 50 µM; in test [5], 19.4 µM; in [6], 17.8 µM; in [10], above 50 µM. Further, the TGI in test [7], in test [8] and in test [9] was above 50 µM in each case.
Take `CC(C)(C)[Si](C)(C)OC1C(=O)C[C@H]2CCCC[C@@H]12` (stereo partly specified): the TGI in test [2], in [4], in [5], in test [6], in test [10] and in [7] was above 100 µM in each case. The TGI in test [8] and in test [9] was above 100 µM in each case.
As for `Cn1c2ccccc2c2ncc3[nH]c4ccccc4c3c21`, the TGI was found to be 71 µM in test [2]; 51.8 µM in [3]; 49.6 µM in test [4]; 31.6 µM in test [5]; 41.7 µM in test [6]; 32.4 µM in [10]. Moreover, the TGI in test [7] is 63.7 µM; in test [8], above 100 µM; in [9] it was 33.9 µM.
`C[C@]12CCC(=O)C=C1CC[C@@H]1C2CC[C@]2(C)Nc3[nH]ncc3CC12` (stereo partly specified): the TGI in [2], in test [3], in test [4], in test [5], in test [6] and in test [10] was above 100 µM throughout. The TGI in test [7], in test [8] and in test [9] was above 100 µM throughout.
With `O=C(/C=C/C=C/c1ccccc1)c1ccccc1`, the TGI turned out to be 55.4 µM in test [1]; 30.3 µM in test [2]; 34.3 µM in test [3]; 42.7 µM in test [4]; 34.3 µM in test [5]; 33 µM in test [6]. Also, the TGI in [10] was found to be 32.8 µM; in test [7], 28.8 µM; in [9], 27.3 µM.
As to `CCOC(=O)c1ccc(N=Nc2cc(C(=O)OCC)ccc2O)cc1`, the TGI in test [2], in [4], in test [6], in [10], in test [7] and in [8] was above 100 µM each time.
As to `COC(=O)c1s/c(=N\C(=S)N(C)C)n(-c2ccc(Cl)cc2)c1C(=O)OC`, the TGI is above 100 µM in test [2]; above 100 µM in test [3]; above 100 µM in [4]; above 100 µM in test [5]; above 10 µM in test [6]; above 100 µM in test [10]. The TGI in test [7], in test [8] and in test [9] was above 100 µM each time.
On to `C[C@H]1CN[C@@H]2[C@@H](C)[C@H]3[C@@H](C[C@H]4[C@@H]5CC[C@H]6C[C@@H](N)CC[C@]6(C)[C@H]5CC[C@]34C)O[C@@]2(O)C1`, for which the TGI in test [1] stood at 6.55 µM; in test [2] it was 6.23 µM; in test [3], 5.77 µM; in test [4], 17.3 µM; in test [5], 5.96 µM; in [6], 4.6 µM. Besides, the TGI in test [10] was determined as 3.27 µM; in [7], 4.5 µM; in test [9] it was 11.1 µM.
As for `O=C1CCC(=O)c2c1c(O)c1ccncc1c2O`, the TGI in test [2] is 35.8 µM; in test [3], 45.3 µM; in test [4], 43.5 µM; in [5], 7.24 µM; in [6], 20.1 µM; in test [10], 29 µM. Moreover, the TGI in [7] was determined as 26.3 µM; in test [8], 69 µM; in test [9], 38.9 µM.
With `CCCCCCCN=C(N)c1ccc(N2CCN(c3ccc(C(N)=NCCCCCCC)cc3)CC2)cc1`, the GI50 was 0.259 µM in [2]; 2.13 µM in test [3]; 0.26 µM in test [4]; 0.162 µM in test [5]; 0.346 µM in test [6]; 0.45 µM in test [7]. In addition, the GI50 in test [8] was 2.5 µM; in [9] it was above 100 µM. For the same molecule, the TGI was above 31.7 µM in [2]; above 100 µM in test [3]; 15 µM in test [4]; 0.517 µM in [5]; above 61.9 µM in test [7]; above 100 µM in [8]. In [9], this molecule yielded a TGI above 100 µM.
Turning to `COC12OCCN(C)C1=CC(=O)C1=NNC(C)C12` (stereo unspecified), the TGI in [2], in test [3], in test [4], in [5], in test [6] and in test [10] was above 100 µM in each case. Moreover, the TGI in test [7] and in test [9] was above 100 µM in each case.
